These results are taken from patent publication US7354936B2, “2-phenylpyran-4-one derivatives” (Almirall AG, priority 2000, dated 2008).

The structures appear in SMILES notation. pIC50: −log10 of the molar value.

The target of one data set is T1, COX-2 (Homo sapiens, UniProt P35354).
T1 construct: incubated in the presence of LPS (10:g/ml) for 24 h at 37° C. in order to induce the COX-2 expression; from tissue; host or cells: human whole blood (heparinized) from healthy volunteers, LPS-stimulated for 24 h
T1 sequence (P35354 18-604): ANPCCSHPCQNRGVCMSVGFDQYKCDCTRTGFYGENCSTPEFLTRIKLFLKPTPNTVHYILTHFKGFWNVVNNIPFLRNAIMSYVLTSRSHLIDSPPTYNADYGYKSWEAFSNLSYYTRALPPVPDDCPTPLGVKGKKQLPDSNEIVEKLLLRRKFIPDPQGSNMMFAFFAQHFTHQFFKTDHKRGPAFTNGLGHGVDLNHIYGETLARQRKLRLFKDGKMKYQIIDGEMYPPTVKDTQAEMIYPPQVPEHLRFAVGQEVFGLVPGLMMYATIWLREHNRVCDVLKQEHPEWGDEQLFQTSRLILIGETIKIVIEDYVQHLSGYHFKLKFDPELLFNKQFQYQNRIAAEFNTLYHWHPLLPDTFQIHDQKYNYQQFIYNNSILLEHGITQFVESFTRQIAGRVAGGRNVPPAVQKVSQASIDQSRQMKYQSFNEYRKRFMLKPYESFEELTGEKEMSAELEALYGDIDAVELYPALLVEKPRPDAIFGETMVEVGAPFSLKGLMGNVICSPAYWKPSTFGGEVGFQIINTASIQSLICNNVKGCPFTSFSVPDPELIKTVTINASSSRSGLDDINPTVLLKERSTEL
As to the kind of experiment: COX-2 activity in human whole blood (PGE2, LPS-induced). Format: cell-based. The following applies: for pIC50: LPS 24 h at 37° C., PGE2 by ELISA; for Ratio COX-1/COX-2: ratio of COX-1/COX-2 IC50 values.

A further data set addresses T2, COX-1 (Homo sapiens, UniProt P23219).
T2 construct: Fresh blood from healthy volunteers; from tissue; host or cells: human whole blood (heparinized) from healthy volunteers
As to the kind of experiment: COX-1 activity in human whole blood (TXB2, calcium ionophore A23187). Format: cell-based. The following applies: for pIC50: 1 h at 37° C., TXB2 by ELISA. (In general: An ELISA detects its analyte on a solid surface through an enzyme-linked reagent.)

T2 sequence (P23219 24-599): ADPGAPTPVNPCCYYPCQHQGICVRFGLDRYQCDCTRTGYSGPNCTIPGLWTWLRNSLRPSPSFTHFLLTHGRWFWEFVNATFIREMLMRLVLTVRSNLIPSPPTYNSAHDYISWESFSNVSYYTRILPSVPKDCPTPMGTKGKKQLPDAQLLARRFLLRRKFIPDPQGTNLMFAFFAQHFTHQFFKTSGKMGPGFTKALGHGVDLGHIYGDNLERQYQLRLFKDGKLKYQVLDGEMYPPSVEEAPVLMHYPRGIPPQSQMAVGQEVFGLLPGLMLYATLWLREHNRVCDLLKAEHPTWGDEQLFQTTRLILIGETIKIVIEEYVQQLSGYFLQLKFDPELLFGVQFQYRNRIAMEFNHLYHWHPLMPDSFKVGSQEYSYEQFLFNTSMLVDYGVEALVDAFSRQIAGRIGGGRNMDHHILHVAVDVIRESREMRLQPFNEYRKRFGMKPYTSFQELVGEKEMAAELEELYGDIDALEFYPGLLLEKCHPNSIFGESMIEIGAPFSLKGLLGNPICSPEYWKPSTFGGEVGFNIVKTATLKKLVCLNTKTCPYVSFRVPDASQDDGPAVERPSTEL
Description for COX-1: (§1) COX-1 and COX-2 Activities in Human Whole Blood
For the COX-1 activity determination, 500:1 aliquots of blood were incubated with either 5:1 vehicle (dimethylsulphoxide) or 5:1 of a test compound for 1 h at 37° C. Calcium ionophore A23187 (25:M) was added 20 min before stopping the incubation. Plasma was separated by centrifugation (10 min at 13000 rpm) and kept at −30° C. until TXB2 levels were measured using an enzyme immunoassay kit (ELISA).
The effect of the compounds was evaluated by incubating each compound at five to six different concentrations with triplicate determinations. IC50 values were obtained by non-linear regression using InPlot, GraphPad software on an IBM computer.
Description for COX-2: as §1
Plasma was separated by centrifugation (10 min at 13000 rpm) and kept at −30° C. until PGE2 levels were measured using an enzyme immunoassay kit (ELISA). […] IC50 values were obtained by non-linear regression using InPlot, GraphPad software on an IBM computer.

The term pIC50 denotes −log10 of the IC50, conventionally taken in molar units. The melting point is the temperature of the solid-liquid transition. For `COCc1cc(=O)c(Oc2ccc(F)cc2F)c(-c2ccc(S(C)(=O)=O)cc2)o1` [Example 26, 3-(2,4-Difluorophenoxy)-2-(4-methanesulfonylphenyl)-6-methoxymethyl pyran-4-one], the melting point turned out to be 124 °C. On COX-2, the pIC50 is 6.77 and the “Ratio COX-1/COX-2” value worked out at 124. In addition, at COX-1, the pIC50 is 4.68.
The matching figures for `COCc1cc(=O)c(Oc2ccc(Cl)cc2)c(-c2ccc(S(C)(=O)=O)cc2)o1` [Example 28, 3-(4-Chlorophenoxy)-2-(4-methanesulfonylphenyl)-6-methoxymethylpyran-4-one]: 156 °C, 6.36, 209 and 4.04.
The matching figures for `CC(=O)OCc1cc(=O)c(Oc2ccc(F)cc2)c(-c2ccc(S(C)(=O)=O)cc2)o1` [Example 30, Acetic acid [5-(4-fluorophenoxy)-6-(4-methanesulfonylphenyl)-4-oxo-4H-pyran-2-yl]methyl ester]: 180 °C, 6.85, 359 and 4.30.
What is called inhibition is the change of the read-out against control, counted positive when it falls. In the case of `CC(=O)OCc1cc(=O)c(Oc2ccc(Cl)cc2)c(-c2ccc(S(C)(=O)=O)cc2)o1` [Example 31, Acetic acid [5-(4-chlorophenoxy)-6-(4-methanesulfonylphenyl)-4-oxo-4H-pyran-2-yl]methyl ester], the melting point was determined as 115 °C. Moreover, on COX-2, the pIC50 is 5.96 and the “Ratio COX-1/COX-2” value is recorded as greater than 90. Further, the inhibition at 100 µM at COX-1 (read-out: COX-1 inhibition at 100 μM, at 100 μM) is 17%.
For `CS(=O)(=O)c1ccc(-c2oc(C(=O)O)cc(=O)c2Oc2ccc(F)cc2F)cc1` [Example 32, 5-(2,4-Difluorophenoxy)-6-(4-methanesulfonylphenyl)-4-oxo-4H-pyran-2-carboxylic acid], the melting point worked out at 245 °C. In addition, at COX-2, the pIC50 was 6.38 and the “Ratio COX-1/COX-2” value was 1070. Moreover, the pIC50 on COX-1 is 3.35.
The matching figures for `Cc1ccc(Oc2c(-c3ccc(S(C)(=O)=O)cc3)oc(C(F)F)cc2=O)cc1` [Example 36, 6-(1,1-Difluoromethyl)-2-(4-methanesulfonylphenyl)-3-(4-methylphenoxy)pyran-4-one]: 160 °C, 7.01, 294 and 4.55.
